# Key:
# [1] = biological target: T1, RAR β (Homo sapiens, UniProt P10826); test: Ligand binding assay, retinoic acid receptor β; conditions: second value of α/β/γ cell
# T1 sequence (P10826 1-455): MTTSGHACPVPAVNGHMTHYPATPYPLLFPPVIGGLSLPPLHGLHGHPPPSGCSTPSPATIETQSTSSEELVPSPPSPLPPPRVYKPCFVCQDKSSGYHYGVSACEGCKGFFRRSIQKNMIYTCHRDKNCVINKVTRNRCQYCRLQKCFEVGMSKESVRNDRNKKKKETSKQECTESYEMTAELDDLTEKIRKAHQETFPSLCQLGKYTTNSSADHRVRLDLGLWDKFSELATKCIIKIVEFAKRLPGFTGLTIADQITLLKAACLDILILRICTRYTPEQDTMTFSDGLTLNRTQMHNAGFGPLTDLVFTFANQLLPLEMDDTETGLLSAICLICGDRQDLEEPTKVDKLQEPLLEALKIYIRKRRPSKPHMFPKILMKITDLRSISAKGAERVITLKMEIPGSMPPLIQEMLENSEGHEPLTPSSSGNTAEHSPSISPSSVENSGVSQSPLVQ
# Source text: (§1) The retinoic acid receptor agonist selectivity of a compound of the invention may be determined by using ligand binding assays known to the skilled artisan (Apfel et al., Proc. Natl. Acad. Sci., 1992, 89, 7129; Teng et al., J. Med. Chem., 1997, 40, 2445; Bryce et al., U.S. Pat. No. 5,807,900 which are herein incorporated by reference). Treatment with RAR agonists, particularly RAR γ agonists may promote repair of alveolar matrix and septation, which are in important in treating emphysema. It should be noted that RAR agonists that are not γ selective may be effective in treating emphysema
# as §1, with “emphysema” for “emphysema.”, “emphysema.” for “emphysema”
# [2] = biological target: T2, RAR α (Homo sapiens, UniProt P10276); test: Ligand binding assay, retinoic acid receptor α; conditions: first value of α/β/γ cell
# T2 sequence (P10276 1-462): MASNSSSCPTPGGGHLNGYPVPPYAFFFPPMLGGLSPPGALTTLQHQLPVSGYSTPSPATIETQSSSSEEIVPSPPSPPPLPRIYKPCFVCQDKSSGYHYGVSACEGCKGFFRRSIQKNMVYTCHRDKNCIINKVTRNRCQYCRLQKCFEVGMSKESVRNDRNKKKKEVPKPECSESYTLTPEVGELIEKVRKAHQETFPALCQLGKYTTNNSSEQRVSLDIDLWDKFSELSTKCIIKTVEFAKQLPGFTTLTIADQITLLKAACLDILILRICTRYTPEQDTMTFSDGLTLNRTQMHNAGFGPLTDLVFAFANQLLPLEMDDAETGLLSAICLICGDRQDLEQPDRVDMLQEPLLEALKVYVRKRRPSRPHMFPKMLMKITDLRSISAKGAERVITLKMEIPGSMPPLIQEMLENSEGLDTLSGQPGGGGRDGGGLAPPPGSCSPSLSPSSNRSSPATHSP
# Source text: as §1
# as §1, with “emphysema” for “emphysema.”, “emphysema.” for “emphysema”
# [3] = biological target: T3, RAR γ (Homo sapiens, UniProt P13631); test: Ligand binding assay, retinoic acid receptor γ; conditions: third value of α/β/γ cell
# T3 sequence (P13631 1-454): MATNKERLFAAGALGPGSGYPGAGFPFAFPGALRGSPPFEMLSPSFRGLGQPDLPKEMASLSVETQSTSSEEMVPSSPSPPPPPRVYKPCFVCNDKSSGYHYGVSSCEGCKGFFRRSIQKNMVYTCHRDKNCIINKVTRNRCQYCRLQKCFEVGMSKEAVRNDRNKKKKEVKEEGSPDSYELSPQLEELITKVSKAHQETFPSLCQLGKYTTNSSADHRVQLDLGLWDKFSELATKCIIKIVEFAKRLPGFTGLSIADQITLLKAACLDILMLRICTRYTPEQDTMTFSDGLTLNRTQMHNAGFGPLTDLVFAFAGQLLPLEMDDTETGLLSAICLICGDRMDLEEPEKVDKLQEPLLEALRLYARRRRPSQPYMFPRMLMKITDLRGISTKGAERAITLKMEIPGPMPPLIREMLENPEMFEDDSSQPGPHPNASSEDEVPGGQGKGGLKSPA
# Source text: as §1
# as §1, with “emphysema” for “emphysema.”, “emphysema.” for “emphysema”
# [4] = system: rat model of elastase-induced emphysema; test: Alveolar repair in rat model of elastase-induced emphysema; format: in vivo, male Sprague Dawley rats; conditions: once per day starting 21 days post elastase injury, relative to elastase+vehicle group
# Source text: Compounds of the invention may be evaluated for their effects on alveolar repair in the rat model of elastase-induced emphysema (Massaro et al., Nature, 1997, Vol. 3, No. 6: 675; Massaro et al., U.S. Pat. No. 5,998,486). Preferably, animals are divided into treatment groups of approximately eight. Lung inflammation and alveolar damage may be induced in male Sprague Dawley rats by a single instillation of about 2 U/gram body mass of pancreatic elastase (porcine derived, Calbiochem).
# Animals may be treated with a compound of the invention formulated Miglyol at convenient oral dosage ranges (preferably, between about 10.0 mg/kg and 0.0001 mg/kg) and will be dosed orally once per day starting 21 days post injury. Control groups are challenged with elastase and 21 days later are treated with vehicle (Miglyol) for 14 days. Animals were sacrificed 24 hours after the last dose by exsanguination under deep anesthesia. Blood was collected at time of exsanguination for analysis.
# The lungs are inflated with 10% neutral buffered formalin by intratracheal instillation at a constant rate (1 ml/gram body mass/min). The lung is excised and immersed in fixative for 24 hours prior to processing. Standard methods were used to prepare 5 μm paraffin sections. Sections were stained with Hematoxylin and Eosin. Alveolar measurements were made in four regions of the lung/rat by Computerized Morphometric analysis. The mean value/treatment group may be determined by summing the average area/rat for all eight rats/treatment groups and repair of elastase damage expressed as percentage of repair relative to the elastase+vehicle treated group from the following calculation: […]
IC50 [1],melting point,IC50 [2],IC50 [3],SMILES,% Alveolar repair ([4]; dose 1 μg/kg p.o.),% Alveolar repair ([4]; dose 10 μg/kg p.o.),% Alveolar repair ([4]; dose 100 μg/kg p.o.)
3160 nM,91.5 to 93.3 °C,3920 nM,3770 nM,"CCCCCC(COc1ccc(C(=O)O)cc1)c1ccc2c(c1)OCCC2(C)C (racemic) [Example 5.1, 4-[2-(4,4-dimethyl-chroman-7-yl)-heptyloxy]-benzoic acid]",,,
3010 nM,123 to 123.5 °C,2070 nM,3230 nM,"CCCCCC(COc1ccc(C(=O)O)cc1)c1ccc2c(c1)SCCC2(C)C (racemic) [Example 5.2, 4-[2-(4,4-dimethyl-thiochroman-7-yl)-heptyloxy]-benzoic acid]",,,
2920 nM,,6920 nM,3870 nM,"CCCCCC(/C=C/c1ccc(C(=O)O)cc1)c1ccc2c(c1)OCCC2(C)C (racemic) [Example 5.3, 4-[3-(4,4-dimethyl-chroman-7-yl)-oct-1-enyl]-benzoic acid]",,,
1490 nM,,1580 nM,2330 nM,"CCCCCC(/C=C/c1ccc(C(=O)O)cc1)c1ccc2c(c1)SCCC2(C)C (racemic) [Example 5.4, 4-[3-(4,4-dimethyl-thiochroman-7-yl)-oct-1-enyl]-benzoic acid]",,,
1940 nM,,1460 nM,1420 nM,"CCCCCC(/C=C/c1ccc(C(=O)O)cc1)c1ccc2c(c1)N(C)CCC2(C)C (racemic) [Example 5.5, 4-[3-(1,4,4-trimethyl-1,2,3,4-tetrahydro-quinolin-7-yl)-oct-1-enyl]-benzoic acid]",65%,54%,60.9%
1470 nM,,1280 nM,1000 nM,"CCCCCC(/C=C/c1ccc(C(=O)O)cc1)c1ccc2c(c1)N(CC)CCC2(C)C (racemic) [Example 5.6, 4-[3-(1-ethyl4,4-dimethyl-1,2,3,4-tetrahydro-quinolin-7-yl)-oct-1-enyl]-benzoic acid]",,,
1050 nM,,3390 nM,> 10000 nM,"CCC(/C=C/c1ccc(C(=O)O)cc1)c1ccc2c(c1)N(C)CCC2(C)C (racemic) [Example 5.7, 4-[3-(1,4,4-trimethyl-1,2,3,4-tetrahydro-quinolin-7-yl)-pent-1-enyl]-benzoic acid]",,,
8270 nM,,5140 nM,6390 nM,"CCCCCC(/C=C/c1ccc(C(=O)O)cc1)c1ccc2c(c1)NCCC2(C)C (racemic) [Example 5.10, 4-[3-(4,4-dimethyl-1,2,3,4-tetrahydro-quinolin-7-yl)-oct-1-enyl]-benzoic acid]",,,
3260 nM,,6290 nM,4060 nM,"CCCCCC(/C=C/c1ccc(C(=O)O)cc1F)c1ccc2c(c1)N(C)CCC2(C)C (racemic) [Example 5.11, 3-fluoro-4-[3-(1,4,4-trimethyl-1,2,3,4-tetrahydro-quinolin-7-yl)-oct-1-enyl]-benzoic acid]",,,
4150 nM,,3170 nM,5440 nM,"CCCCCC(COc1ccc(C(=O)O)cc1)c1ccc2c(c1)N(C)CCC2(C)C (racemic) [Example 5.12, 4-[2-(1,4,4-trimethyl-1,2,3,4-tetrahydro-quinolin-7-yl)-heptyloxy]-benzoic acid]",,,
3130 nM,,2520 nM,3600 nM,"CCCCCC(COc1ccc(C(=O)O)cc1)c1ccc2c(c1)N(CC)CCC2(C)C (racemic) [Example 5.13, 4-[2-(1-ethyl4,4-dimethyl-1,2,3,4-tetrahydro-quinolin-7-yl)-heptyloxy]-benzoic acid]",,,

# Source: patent publication US7354931B2, “Heterocyclic retinoid compounds” (Roche Palo Alto LLC, priority 2001, dated 2008)
